Laboratory results taken from patent US20050054680A1, “Agonists and antagonists of 5h3-like receptors of invertebrates as pesticides” (priority 2001, published 2005).
“Also recorded” adds a separate entry of the source.

Test system: C. elegans of the Bristol N2 strain
Experiment: Automated feeding assay (bead ingestion, pharyngeal pumping)
Format: in vivo, Caenorhabditis elegans
Conditions: for Effect of 0.325 mM compound on serotonin-stimulated (0.325 mM) bead ingestion: 0.325 mM compound plus 0.325 mM serotonin; for Effect of 0.325 mM compound on bead ingestion: no added serotonin
Source text: An automated screening assay has been developed and described in the present Applicants' co-pending International patent application No. PCT/AU00/01476 (WO 01/40500). Using the screening assay, twenty novel tropanyl ester compounds as well as tropanyl dichlorobenzoate were screened for nematicidal activity.
The assay used was essentially that described in WO 01/40500 with minor modifications. The protocol was as follows:
(1.) Plate Culture. C. elegans of the Bristol N2 strain (Brenner, 1974) were cultured at room temperature on HMS174 E. coli bacteria (Campbell et al., 1978) spread on a 150 mm diameter petri dish containing enhanced NGM 1.7% (w/v) (Avery and Horvitz, 1990) agar until a good population of adult nematodes was present, but food reserves had not been exhausted.
(2.) The nematodes were collected by washing each plate with 10 mL and then 5 mL of M9 buffer plate and filtering over a 20 μm nylon mesh (Nytal—Catalogue no. BCNY-HDO02-20) to retain adult nematodes. The nematodes from 7-8 of these 150 mm plates were collected together and placed on a 63 μm mesh filter (Nytal—product code PA-25-43) and washed with 200-250 mL of M9 buffer or MilliQ water. This procedure allows the passage of nematodes whilst retaining larger debris. Finally the nematodes were collected over a 20 μm mesh.
(3.) Adult nematodes were collected from the mesh using a pasteur pipette and allowed to settle in an eppendorf tube at 1×g for 10 minutes. This packed volume was used to calculate quantities of nematodes for experiments and assays, although nematodes were resuspended in 2-10 volumes of M9 buffer for transfer. Quantitative transfers of nematodes were performed using a Gilson Pipetman P200 or equivalent and a yellow tip with 5 mm cut off the sharp end.
(4.) Assays were performed in 24 well tissue-lture clusters (Nunc multidish). The final assay volume was 230 μL comprising the following sequential additions: • (i) M9 buffer—sufficient to bring the final volume to 230 μL • ([…]) Any other pharmacological agents—≦1.5 μL of drug in DMSO (or water) • (iv) Nematodes—150 μL of a 10% (v/v) stock in M9 • (v) Fluorescent beads—23 μL of a 1% w/v solution in M9.
Where serotonin or other pharmacological agents were omitted, the volume was adjusted with M9 buffer. Control experiments included 1.5 μL of DMSO except in the case of ondansetron, which was added from an aqueous stock.
The fluorescent beads were 1.30 μm uniformly dyed microsphere beads with a hydrophilic surface-coating. The fluorescence excitation maximum was 420 nm and the emission maximum was 485 nm (catalogue code FC04F, carboxylate-modified polystyrene/polyvinyl copolymer, manufactured and supplied by Bangs Laboratories, Inc. 9025 Technology Drive, Fishers, INDIANA 46038-2886, USA).
(5.) The nematodes were incubated for 60 minutes after the addition of the fluorescent beads at room temperature (≈21° C.) without shaking. The assay was terminated by the addition of 20 μL of 100 mM sodium azide.
(6.) Two aliquots of 100 μl each were transferred from each well of the 24 well cluster to a pair of wells in a pre-blocked mesh-bottomed plate (see below for details of the mesh-bottomed plate) and the buffer/bead suspension was immediately aspirated away through the filter mesh using a Millipore Multiscreen vacuum manifold.
(7.) A total of eight washing steps were performed. Each of the first five washes used 200 μL of 1%(w/v) sodium lauryl sulphate (SDS—Sigma) in M9 buffer. The third and fifth washes involved pipetting the solution up and down in the wells of the plate ten times each wash. The SDS washes were followed by three washes with 200 μL of M9 buffer only. At the end of each washing step, solutions were aspirated away through the mesh using a Millipore Multiscreen vacuum manifold. […]

[1] = in the presence of 1 mM serotonin, estimated from log dose response curves (FIG. 2)

SMILES: CN1[C@@H]2CC[C@H]1CC(OC(=O)c1c[nH]c3ccccc13)C2 (stereo partly shown) [DCP-45240 (20), 1H-indole-3-carboxylic acid tropan-3-yl ester]
- Effect of 0.325 mM compound on serotonin-stimulated (0.325 mM) bead ingestion: reverses markedly
- Effect of 0.325 mM compound on bead ingestion: no effect
- IC50 (Caenorhabditis elegans, in the presence of 1 mM serotonin, estimated from log dose response curves (FIG. 2), read-out: IC50 (inhibitory concentration 50%) for bead ingestion): 316 µM

SMILES: CN1[C@@H]2CC[C@H]1CC(OC(=O)c1ccc(Cl)c(Cl)c1)C2 (stereo partly shown) [DCP-45228 (8), 3,4-dichloro-benzoic acid tropan-3-yl ester]
- Effect of 0.325 mM compound on serotonin-stimulated (0.325 mM) bead ingestion: strongly reversed; also recorded: reverses strongly
- Effect of 0.325 mM compound on bead ingestion: reduced; also recorded: inhibits
- Implied IC50 without serotonin (extrapolated from IC50 ratio, not measured) (Caenorhabditis elegans, in the absence of added serotonin, implied from the tropanyl dichlorobenzoate IC50 ratio with and without serotonin, read-out: IC50 and therefore chronic EC50 implied from differential factor): ~6 µM

SMILES: CN1[C@@H]2CC[C@H]1CC(OC(=O)c1ccccc1)C2 (stereo partly shown) [DCP-45221 (1), benzoic acid tropan-3-yl ester]
- Effect of 0.325 mM compound on serotonin-stimulated (0.325 mM) bead ingestion: potentiates marginally
- Effect of 0.325 mM compound on bead ingestion: stimulates marginally

SMILES: COC(=O)[C@H]1CC[C@H](C(=O)OC2C[C@H]3CC[C@@H](C2)N3C)CC1 (relative stereo) [DCP-45235 (15), trans-cyclohexane-1,4-dicarboxylic acid methyl ester tropan-3-yl ester]
- Effect of 0.325 mM compound on serotonin-stimulated (0.325 mM) bead ingestion: no effect/reverses
- Effect of 0.325 mM compound on bead ingestion: no effect

SMILES: CC(Oc1ccccc1)C(=O)OC1C[C@H]2CC[C@@H](C1)N2C (stereo partly shown) [DCP-45230 (10), 2-phenoxy-propionic acid tropan-3-yl ester]
- Effect of 0.325 mM compound on serotonin-stimulated (0.325 mM) bead ingestion: reverses marginally
- Effect of 0.325 mM compound on bead ingestion: inhibits

SMILES: COC(=O)c1ccc(C(=O)OC2C[C@H]3CC[C@@H](C2)N3C)cc1 (stereo partly shown) [DCP-45236 (16), terephthalic acid methyl ester tropan-3-yl ester]
- Effect of 0.325 mM compound on serotonin-stimulated (0.325 mM) bead ingestion: no effect
- Effect of 0.325 mM compound on bead ingestion: no effect

SMILES: CN1[C@@H]2CC[C@H]1CC(OC(=O)C1CC1)C2 (stereo partly shown) [DCP-45233 (13), cyclopropanecarboxylic acid tropan-3-yl ester]
- Effect of 0.325 mM compound on serotonin-stimulated (0.325 mM) bead ingestion: potentiates marginally
- Effect of 0.325 mM compound on bead ingestion: no effect

SMILES: CN1[C@@H]2CC[C@H]1CC(OC(=O)Cc1ccccc1)C2 (stereo partly shown) [DCP-45231 (11), phenyl-acetic acid tropan-3-yl ester]
- Effect of 0.325 mM compound on serotonin-stimulated (0.325 mM) bead ingestion: reverses marginally
- Effect of 0.325 mM compound on bead ingestion: inhibits

SMILES: CN1[C@@H]2CC[C@H]1CC(OC(=O)c1cccc(Cl)c1)C2 (stereo partly shown) [DCP-45224 (4), 3-chloro-benzoic acid tropan-3-yl ester]
- Effect of 0.325 mM compound on serotonin-stimulated (0.325 mM) bead ingestion: strongly reversed; also recorded: reverses strongly
- Effect of 0.325 mM compound on bead ingestion: no effect
- IC50 (inhibitory concentration 50%) for bead ingestion [1]: impossible to estimate

SMILES: CN1[C@@H]2CC[C@H]1CC(OC(=O)C1CCC1)C2 (stereo partly shown) [DCP-45234 (14), cyclobutanecarboxylic acid tropan-3-yl ester]
- Effect of 0.325 mM compound on serotonin-stimulated (0.325 mM) bead ingestion: no effect
- Effect of 0.325 mM compound on bead ingestion: no effect

SMILES: COC(=O)C12C3C4C1C1C2C3C41C(=O)OC1C[C@H]2CC[C@@H](C1)N2C (stereo partly shown) [DCP-45232 (12), cubane-1,4-dicarboxylic acid methyl ester tropan-3-yl ester]
- Effect of 0.325 mM compound on serotonin-stimulated (0.325 mM) bead ingestion (observed with an unpurified mixture): reverses marginally^1
- Effect of 0.325 mM compound on bead ingestion: no effect

SMILES: CN1[C@@H]2CC[C@H]1CC(OC(=O)c1cccc(CCl)c1)C2 (stereo partly shown) [DCP-45223 (3), 3-chloromethyl-benzoic acid tropan-3-yl ester]
- Effect of 0.325 mM compound on serotonin-stimulated (0.325 mM) bead ingestion: no effect
- Effect of 0.325 mM compound on bead ingestion: no effect

SMILES: CN1[C@@H]2CC[C@H]1CC(OC(=O)c1ccccc1F)C2 (stereo partly shown) [DCP-45229 (9), 2-fluoro-benzoic acid tropan-3-yl ester]
- Effect of 0.325 mM compound on serotonin-stimulated (0.325 mM) bead ingestion: strongly reversed; also recorded: reverses marginally
- Effect of 0.325 mM compound on bead ingestion: no effect
- Anomalous activity in dose response for bead ingestion (in the presence of 1 mM serotonin, at lower doses): very strong stimulatory effects
- IC50 (inhibitory concentration 50%) for bead ingestion [1]: impossible to estimate
